# Data taken from article PMC7217877, “N-AS-triggered SPMs are direct regulators of microglia in a model of Alzheimer’s disease” (Nature Communications, 2020).
# Values joined by “and” are separate entries in the source; they are usually repeats but may differ in a detail not shown here. Identical values can stand only once.
# Assays:
# [1] = system: APP/PS1 mice; test: lipid mediator-SPM profile of microglia isolated from treated mice (LC-MS/MS, Supplementary Table 2, Fig 4e-g); format: in vivo, mouse; set-up: 15R-LXA4 level in microglia (sFig 4g) / RvE1 level in microglia (sFig 4g) / RvD1 level in microglia (sFig 4g): unit not given here
# Protocol: Lipid mediators metabololipidomics were performed according to previously described procedures with minor modifications[4],[30]. To confirm the biosynthesis of lipid mediators by recombinant COX2 treated with N-AS or aspirin, 10 U of human recombinant COX2 (Cayman, 60122) was incubated in the presence of 500 μM aspirin (Sigma-Aldrich, A5376) or N-AS (Sigma-Aldrich, 01912) at 37 °C for 30 min. The enzyme was filtered with a Microcon column (Millipore) to remove unreacted aspirin or N-AS and was then resuspended in 0.1 M Tris-HCl (pH 8.0). Next, 500 μM phenol (Sigma-Aldrich) and 1 μM hematin-porcine (Sigma-Aldrich) were added immediately before incubation with 100 μM AA, EPA or DHA (Cayman) at 37 °C for 2 h, respectively. The mixtures were incubated with 30 U of human 5-LOX (Cayman, 60402) containing 2 mM CaCl2 (Sigma-Aldrich), 1 mM ATP (Amresco) and 5 μM 13-HpODE (Cayman) as activators. Also, to validate the importance of residue S565 for N-AS-acetylation of COX2 and production of SPMs, 10 U of the COX2 S565A mutant was used in the above-described method. In addition, to confirm SPM generation in neurons and microglia, these cells were treated with Aβ and sonicated in neuronal and glial culture medium. […] To evaluate the relationship of N-AS and SPM production in microglia, microglia were isolated from WT, APP/PS1, and APP/PS1 treated with N-AS mice at 9 months of age. The microglia were sonicated and resuspended in microglial culture medium. The supernatants were incubated with 100 μM AA, EPA, and DHA (Cayman) at 37 °C for 2 h. A 50 μl aliquot of the mixture from each cell lysate was added to a 250 μl aliquot of 1 ng ml^−1 of 15S-LXA4-d5 (internal standard, Cayman) methanol solution. After vortexing for 10 min and centrifuging at 15,974×g for 5 min, the supernatant was subjected to the analysis of the lipid mediators using an Agilent 6470 Triple Quad LC-MS/MS system (Agilent) coupled to an Agilent 1290 HPLC system. Chromatographic separation was achieved using a Synergi Polar RP (4 μm, 2.0 mm i.d. × 150 mm, Phenomenex). Analytes were eluted with a mobile phase consisting of water: formic acid (100:0.1 v/v) (phase A) and methanol: formic acid (100:0.1 v/v) (phase B) in gradient elution mode for 23 min a flow rate of 0.2 ml min^−1. The elution gradient was as follows: from 0 to 0.1 min the content of phase A was 37% and the content of phase A was decreased to 10% and maintained for 5.5 min. The content of phase A was increased back to 37% at 6.0 min and maintained for 23 min. Quantification was carried out using MRM in negative ionization mode and collision energy of 10–15 eV. The mass transition from Q1 to Q3 is shown in Supplementary Table 2. In this study, the peak areas for all components were automatically integrated using MassHunter B 06.00.
# Adult neurons and microglia were isolated from the mice brain as previously described. In brief, the cortex of WT (1, 3, 5, or 9-months-old), APP/PS1 (1, 3, 5, or 9-months-old), APP/PS1 treated with N-AS (9-months-old) or APP/PS1 treated with aspirin (9-months-old) mice were minced in Hibernate A (Gibco)/B27 (Invitrogen) medium and dissociated using papain (Worthington) solution. After tissue trituration, cells were separated by Optiprep (Sigma-Aldrich) density gradient centrifugation. The purity of the fractionated neurons and microglia were acutely confirmed by neuronal (NeuN, mouse, 1:200, Millipore, MAB377) and microglial (Iba1, rabbit, 1:1000, Wako, 019-19941) markers and the isolated neurons and microglia were acutely analyzed for the acetylation assay and lipid mediators metabololipidomics.
# Transgenic mouse lines over-expressing the hAPP695swe (APP) and presenilin-1M146V (PS1) mutations were originated from GlaxoSmithKline (Harlow, UK)[32] and maintained as described previously. We purchased 5×FAD mice from Jackson Labs (Stock number. 34840-JAX). Because APP/PS1 and 5xFAD mice show sex differences in disease progression, we used only male mice. […]
# [2] = system: APP/PS1 mice; test: ELISA of Aβ40 and Aβ42 in cortex (Fig 6e); format: in vivo, mouse; set-up: Ab 40 (ELISA, Figure 6e) / Ab 42 (ELISA, Figure 6e): unit not given beside the values
# Protocol: For measurement of Aβ40 and Aβ42, we used commercially available ELISA kits (Invitrogen, KHB3481, and KHB3441). Cortex of mice was homogenized in buffer containing […] guanidine. ELISA was then performed for Aβ40 and Aβ42 according to the manufacturer’s instructions.
# Transgenic mouse lines over-expressing the hAPP695swe (APP) and presenilin-1M146V (PS1) mutations were originated from GlaxoSmithKline (Harlow, UK)[32] and maintained as described previously. We purchased 5×FAD mice from Jackson Labs (Stock number. 34840-JAX). Because APP/PS1 and 5xFAD mice show sex differences in disease progression, we used only male mice. To examine possible therapeutic effect of N-AS and aspirin in APP/PS1 mice, the N-AS (30 mg kg^−1, Sigma-Aldrich, 01912) was injected daily s.c. for 8 weeks to 7-months-old APP/PS1 mice until the age of 9 months, and aspirin (2 mg kg^−1, Sigma-Aldrich, A5376)[33] was administrated orally to 7-months-old APP/PS1 mice for 8 weeks. Also, to confirm possible therapeutic efficacy of N-AS in 5×FAD, the N-AS (30 mg kg^−1, Sigma-Aldrich, 01912) was injected daily s.c. for 4 weeks to 3-months-old 5×FAD mice until the age of 4 months. Block randomization method was used to allocate the animals to experimental groups. To eliminate the bias, we were blinded in experimental progress such as data collection and data analysis. Mice were housed at temperature of 22 °C and a 12 h day/12 h night cycle with free access to tap water and food pellets. All protocols were approved by the Kyungpook National University Institutional Animal Care and Use Committee.
# [3] = APP/PS1 + N-AS, individual samples
# [4] = APP/PS1 + N-AS, individual animals
compound,measurement,setting,value
"CCCCCCCCCCCCC/C=C/[C@@H](O)[C@H](CO)NC(C)=O [N-AS, N-((2S,3R,E)-1,3-Dihydroxyoctadec-4-en-2-yl)acetamide]",15R-LXA4 level in microglia (sFig 4g),[1]; [3],4570 and 5879.36 and 4407.58 and 3923.74 and 3772.92 and 3755.88 and 4463.12 and 4253.3
same,RvD1 level in microglia (sFig 4g),[1]; [3],122.239 and 113.373 and 105 and 174.655 and 77.0631 and 102.088 and 125.141 and 80.0045
same,RvE1 level in microglia (sFig 4g),[1]; [3],121.276 and 201.615 and 123.367 and 132.221 and 152.593 and 109.936 and 221.33
same,11-HEPE in mouse microglia,"[1]; APP/PS1/N-AS, mean±s.e.m., n=6",8016.0±190.1 pg/1*106cell
same,11-HETE in mouse microglia,"[1]; APP/PS1/N-AS, mean±s.e.m., n=6",8870.6±557.1 pg/1*106cell
same,13-HDHA in mouse microglia,"[1]; APP/PS1/N-AS, mean±s.e.m., n=6",6824.5±237.7 pg/1*106cell
same,15-HEPE in mouse microglia,"[1]; APP/PS1/N-AS, mean±s.e.m., n=6",5286.6±214.8 pg/1*106cell
same,15-HETE in mouse microglia,"[1]; APP/PS1/N-AS, mean±s.e.m., n=6",33117.1±1929.6 pg/1*106cell
same,15R-LXA4 in mouse microglia,"[1]; APP/PS1/N-AS, mean±s.e.m., n=6",4378.2±241.8 pg/1*106cell
same,17-HDHA in mouse microglia,"[1]; APP/PS1/N-AS, mean±s.e.m., n=6",86224.5±10404.3 pg/1*106cell
same,18-HEPE in mouse microglia,"[1]; APP/PS1/N-AS, mean±s.e.m., n=6",31965.9±2934.1 pg/1*106cell
same,AA in mouse microglia,"[1]; APP/PS1/N-AS, mean±s.e.m., n=6",39563.5±824.8 pg/1*106cell
same,DHA in mouse microglia,"[1]; APP/PS1/N-AS, mean±s.e.m., n=6",37384.7±1351.7 pg/1*106cell
same,EPA in mouse microglia,"[1]; APP/PS1/N-AS, mean±s.e.m., n=6",406.6±21.1 pg/1*106cell
same,LTB4 in mouse microglia,"[1]; APP/PS1/N-AS, mean±s.e.m., n=6",876.5±71.9 pg/1*106cell
same,PGE3/PGD3 in mouse microglia,"[1]; APP/PS1/N-AS, mean±s.e.m., n=6",2590.3±243.8 pg/1*106cell
same,PGH2/PGE2 in mouse microglia,"[1]; APP/PS1/N-AS, mean±s.e.m., n=6",3862.0±266.4 pg/1*106cell
same,RvD1 in mouse microglia,"[1]; APP/PS1/N-AS, mean±s.e.m., n=6",112.4±10.9 pg/1*106cell
same,RvE1 in mouse microglia,"[1]; APP/PS1/N-AS, mean±s.e.m., n=6",151.8±16.3 pg/1*106cell
same,TxB3 in mouse microglia,"[1]; APP/PS1/N-AS, mean±s.e.m., n=6",1209.9±70.0 pg/1*106cell
same,"Ab 40 (ELISA, Figure 6e)",[2]; [4],1042.75 and 892.25 and 1044 and 676.5 and 692.5 and 668.75 and 689.75 and 1124
same,"Ab 42 (ELISA, Figure 6e)",[2]; [4],921.303 and 908.818 and 878.061 and 828.152 and 906.333 and 894.303 and 859.97 and 905.879
same,Aβ levels by ELISA of Aβ40 and Aβ42,[2]; N-AS vs vehicle APP/PS1,significantly lower Aβ levels
